From ChEMBL document CHEMBL1208741, “Docking and SAR studies of salacinol derivatives as alpha-glucosidase inhibitors” (Bioorg Med Chem Lett, 2010) come the findings set out here.

The nature of this experiment: Inhibition of alpha glucosidase.
Usually pIC50 stands for −log10 of the IC50, conventionally taken in molar units. As to `O=S(=O)([O-])O[C@@H](CO)[C@H](O)C[S@+]1C[C@@H](O)[C@H](O)[C@H]1CO` [SALACINOL], the pIC50 is 5.28.

Consider `[O-]C[C@@H](O)[C@@H](O)C[S@+]1C[C@@H](O)[C@H](O)[C@H]1CO`, for which the pIC50 is reported as under 3.

Turning to `[O-]CC[C@H](O)C[S@+]1C[C@@H](O)[C@H](O)[C@H]1CO`, the pIC50 came to 3.94.

As to `O=S(=O)([O-])O[C@H](CO)[C@@H](O)C[S@+]1C[C@@H](O)[C@H](O)[C@H]1CO`, the pIC50 is recorded as under 3.

Compound `O=S(=O)([O-])O[C@@H](CO)CC[S@+]1C[C@@H](O)[C@H](O)[C@H]1CO` showed a pIC50 of under 3.

On to `O=S(=O)([O-])OC[C@H](O)C[S@+]1C[C@@H](O)[C@H](O)[C@H]1CO` [SALAPRINOL], for which the negative logarithm of the IC50 (pIC50) was 3.

Regarding `[O-][C@@H](CO)[C@H](O)C[S@+]1C[C@@H](O)[C@H](O)[C@H]1CO` [NEOSALACINOL], the pIC50 was determined as 5.1.

As to `O=S(=O)([O-])OCCC[S@+]1C[C@@H](O)[C@H](O)[C@H]1CO`, the pIC50 is given as under 3.
